Among the data in patent US9550763B2, “Heterocyclic ring and carbocyclic derivative” (Shionogi & Co., Ltd., priority 2012, dated 2017) are IC50 values, retold here.

Each structure is given as a SMILES string.

For the assay, the target named is human P2X3 receptor (Homo sapiens (Human), UniProt P56373). The assay can be described thus: Evaluation of human P2X3 receptor inhibitory activity (Test Example 1-1, FDSS 3000, 96-well, 50 nM ATP). The class given is cell-based. As to conditions: human P2X3 receptor in C6BU-1 cells; Test Example 1-1 (compounds I-001 to I-300). How it is done: Stably expressing cell line (C6BU-1 cell transfected with human P2X3 receptor gene (GenBank accession number Y07683) was used. The cells were seeded in a 96-well microtiter plate at a concentration of 8000 cells/well and cultured in the medium (7.0% fetal bovine serum, 7.0% horse serum, 1% antibiotic and antifungal in DMEM) for one day at 37° C. under 5% carbon dioxide atmosphere. The medium was replaced with 4 μM Fluo-3-AM solution (20 mM HEPES, 137 mM NaCl, 5.27 mM KCl, 0.9 mM MgCl2, 1.26 mM CaCl2, 5.6 mM D-glucose, 2.5 mM probenecid, 1% BSA, and 0.08% Pluronic F-127, pH 7.5) and incubated at 37° C. under 5% dioxide carbon atmosphere for one hour. The plate was washed with washing buffer (20 mM HEPES, 137 mM NaCl, 5.27 mM KCl, 0.9 mM MgCl2, 1.26 mM CaCl2, 5.6 mM D-glucose, 2.5 mM probenecid, pH7.5), and each well was added with 40 μL of this buffer. The plate was placed in High-Throughput Screening System. FDSS 3000 (Hamamatsu Photonics K.K.). Measurement of fluorescence intensity by FDSS 3000 was started, and 40 μL of DMSO solutions containing different concentrations of the test compound as prepared by dilution with dilution buffer (20 mM HEPES, 137 mM NaCl, 5.27 mM KCl, 0.9 mM MgCl2, 1.26 mM CaCl2, 5.68 mM D-glucose, 2.5 mM probenecid, 0.1% Pluronic F-127, pH7.5) were dispensed to each well through the built-in automatic dispenser. Five minutes after, 50 nM ATP solution (50 μL) prepared by dilution with the dilution buffer was dispensed through the built-in automatic dispenser, and the measurement of fluorescence intensity was continued for 4 min. For each well, the specific maximum fluorescence intensity was calculated as the ratio of the maximum fluorescence intensity after addition of the ATP solution to the fluorescence intensity at the starting of the measurement. The 50% inhibitory concentration (IC50) was calculated under the assumption that the specific maximum fluorescence intensity without test compound is 0% inhibition and that the specific maximum fluorescence intensity when the dilution buffer was added in place of ATP solution is 100% inhibition, to evaluate the inhibitory activity of the test compound. FDSS software (Hamamatsu Photonics K.K.) was used for calculation of the specific maximum fluorescence intensity. IC50 was calculated using Microsoft Excel (Microsoft Corporation) and XLfit (idbs Ltd.)
The data of the compounds I-001 to I-300 are the results by the method mentioned in Test Example 1-1, and the data of the compounds I-301 to I-483 are the results by the method mentioned in Test Example 1-2.

Sequence of human P2X3 receptor (P56373 whole entry): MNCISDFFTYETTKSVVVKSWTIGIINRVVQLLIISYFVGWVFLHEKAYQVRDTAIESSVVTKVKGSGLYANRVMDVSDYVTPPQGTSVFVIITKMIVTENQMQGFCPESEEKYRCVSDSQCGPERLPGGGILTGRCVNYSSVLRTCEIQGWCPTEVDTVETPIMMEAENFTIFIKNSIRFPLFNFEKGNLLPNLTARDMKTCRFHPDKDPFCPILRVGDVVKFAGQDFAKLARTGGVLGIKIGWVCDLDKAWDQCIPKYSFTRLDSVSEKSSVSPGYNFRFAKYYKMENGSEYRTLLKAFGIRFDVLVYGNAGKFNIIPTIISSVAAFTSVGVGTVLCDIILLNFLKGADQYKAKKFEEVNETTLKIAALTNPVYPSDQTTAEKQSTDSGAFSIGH

Turning to `CCc1oc2ccc(/N=c3\[nH]cc(CN4CCOCC4)c(=O)n3Cc3ccc(Cl)cc3)cc2c1C` [Compound I-057], the midpoint of inhibition, the IC50, lay at 269 nM.
The value for `CCc1oc2ccc(/N=c3\[nH]cc(C=NOC)c(=O)n3Cc3ccc(Cl)cc3)cc2c1C` [Compound I-058] was 223 nM; that for `CCOC(=O)c1cnc(Nc2ccc(Oc3ncc(C(=O)O)s3)cc2)n(Cc2ccc(Cl)cc2)c1=O` [Compound I-059] was 6 nM; that for `CCOC(=O)c1cccc(Oc2ccc(Nc3cc(=O)n(CC)c(=O)n3Cc3ccc(Cl)cc3)cn2)c1` [Compound I-060] was 160 nM.
In the case of `CCn1c(=O)cc(Nc2ccc(Oc3ccc(C(=O)OC)cc3)nc2)n(Cc2ccc(Cl)cc2)c1=O` [Compound I-061], inhibition was half-maximal at 65 nM (IC50).
Regarding `CCn1c(=O)cc(Nc2ccc(Oc3cccc(C(=O)O)c3)nc2)n(Cc2ccc(Cl)cc2)c1=O` [Compound I-062], the IC50 was 49 nM.
The value for `CCn1c(=O)cc(Nc2ccc(Oc3ccc(C(=O)O)cc3)nc2)n(Cc2ccc(Cl)cc2)c1=O` [Compound I-063] was 422 nM; that for `N#Cc1cccc(Oc2ccc(Nc3cc(=O)[nH]c(=O)n3Cc3ccc(Cl)cc3)cc2)n1` [Compound I-064] was 36 nM.
The value for `CC(=O)Nc1cnc(Nc2ccc(Oc3ccon3)cc2)n(Cc2ccc(Cl)cc2)c1=O` [Compound I-065] was 99 nM.
The value for `NC(=O)c1cccc(Oc2ccc(Nc3cc(=O)[nH]c(=O)n3Cc3ccc(Cl)cc3)cc2)n1` [Compound I-066] was 81 nM; that for `O=C(O)c1cccc(Oc2ccc(Nc3cc(=O)[nH]c(=O)n3Cc3ccc(Cl)cc3)cc2)n1` [Compound I-067] was 34 nM; that for `CC(=O)Nc1cnc(Nc2ccc(Oc3cccnn3)cc2)n(Cc2ccc(Cl)cc2)c1=O` [Compound I-069] was 68 nM.
In the case of `CC(=O)Nc1cnc(Nc2ccc(Oc3cccc(F)n3)cc2)n(Cc2ccc(Cl)cc2)c1=O` [Compound I-070], the IC50 amounted to 28 nM.
`CCc1oc2ccc(Nc3ncc(NC(C)=O)c(=O)n3Cc3ccc(Cl)cc3)cc2c1C` [Compound I-071] came in with an IC50 of 171 nM.
The value for `CCOC(=O)Cc1c[nH]/c(=N\c2ccc3oc(CC)c(C)c3c2)n(Cc2ccc(Cl)cc2)c1=O` [Compound I-072] was 228 nM; that for `CCc1oc2ccc(/N=c3\[nH]cc(C(C)=O)c(=O)n3Cc3ccc(Cl)cc3)cc2c1C` [Compound I-073] was 140 nM; that for `CCc1oc2ccc(/N=c3\[nH]cc(CC(=O)O)c(=O)n3Cc3ccc(Cl)cc3)cc2c1C` [Compound I-074] was 828 nM.
The value for `CCn1c(=O)cc(Nc2cnc(Oc3cccc(C(N)=O)c3)cn2)n(Cc2ccc(Cl)cc2)c1=O` [Compound I-076] was 432 nM; that for `CCc1oc2ccc(Nc3ncc(NC(=O)C4CCOCC4)c(=O)n3Cc3ccc(Cl)cc3)cc2c1C` [Compound I-077] was 191 nM.
Consider `CCc1oc2ccc(Nc3ncc(NC(=O)C4CCOCC4)c(=O)n3Cc3cccc(Cl)c3)cc2c1C` [Compound I-078], for which 20 nM corresponded to half-maximal inhibition (IC50).
In the case of `CCc1oc2ccc(Nc3ncc(NC(=O)C4CCOCC4)c(=O)n3Cc3ccc(Cl)c(Cl)c3)cc2c1C` [Compound I-079], the concentration for half-maximal inhibition (IC50) turned out to be 58 nM.
The compound `CCc1oc2ccc(Nc3ncc(NC(=O)C4CCOCC4)c(=O)n3CC3CCCCC3)cc2c1C` [Compound I-080] returned an IC50 of 20 nM.
The value for `CCc1oc2ccc(Nc3ncc(NC(=O)C4CCOCC4)c(=O)n3C[C@H]3CC[C@H](C)CC3)cc2c1C` [Compound I-082] was 9 nM; that for `CCn1c(=O)cc(Nc2cnc(Oc3cccc(C(=O)O)c3)cn2)n(Cc2ccc(Cl)cc2)c1=O` [Compound I-083] was 168 nM.
The value for `CCc1oc2ccc(/N=c3\[nH]cc(CC(N)=O)c(=O)n3Cc3ccc(Cl)cc3)cc2c1C` [Compound I-084] was 103 nM; that for `O=C(Nc1cnc(Nc2ccc(Oc3ccon3)cc2)n(Cc2ccc(Cl)cc2)c1=O)C1CCOCC1` [Compound I-086] was 2 nM; that for `CCc1c[nH]/c(=N\c2ccc(Oc3ncc(C(=O)O)s3)cc2)n(Cc2ccc(Cl)cc2)c1=O` [Compound I-087] was 29 nM.
Turning to `CCC(=O)Nc1c[nH]/c(=N\c2ccc(Oc3ccon3)cc2)n(Cc2ccc(Cl)cc2)c1=O` [Compound I-088], the IC50 came out at 49 nM.
The value for `CCC(=O)Nc1c[nH]/c(=N\c2ccc(Oc3ccc(CO)nn3)cc2)n(Cc2ccc(Cl)cc2)c1=O` [Compound I-089] was 17 nM; that for `CCC(=O)Nc1c[nH]/c(=N\c2ccc(Oc3cccc(F)n3)cc2)n(Cc2ccc(Cl)cc2)c1=O` [Compound I-090] was 11 nM; that for `CCC(=O)Nc1c[nH]/c(=N\c2ccc(Oc3ccc(C(=O)OC)nc3)cc2)n(Cc2ccc(Cl)cc2)c1=O` [Compound I-091] was 3 nM.
As for `CCC(=O)Nc1c[nH]/c(=N\c2ccc(Oc3ccc(C(=O)O)nc3)cc2)n(Cc2ccc(Cl)cc2)c1=O` [Compound I-092], the half-inhibitory concentration (IC50) was determined as 19 nM.
The value for `CCC(=O)Nc1c[nH]/c(=N\c2ccc(Oc3cccc(C(N)=O)n3)cc2)n(Cc2ccc(Cl)cc2)c1=O` [Compound I-093] was 9 nM.
`CCC(=O)Nc1c[nH]/c(=N\c2ccc(Oc3cnc(C(=O)O)cn3)cc2)n(Cc2ccc(Cl)cc2)c1=O` [Compound I-094] registered an IC50 of 10 nM.
Consider `CCC(=O)Nc1c[nH]/c(=N\c2ccc(Oc3ccc(C(N)=O)nc3)cc2)n(Cc2ccc(Cl)cc2)c1=O` [Compound I-095], for which the half-inhibitory concentration (IC50) came out at 8 nM.
In turn, `CCOC(=O)c1c[nH]/c(=N\c2ccc(Oc3ccon3)cc2)n(Cc2ccc(Cl)cc2)c1=O` [Compound I-096] returned an IC50 of 64 nM.
The value for `CCC(=O)Nc1c[nH]/c(=N\c2ccc(Oc3cnc(C(N)=O)cn3)cc2)n(Cc2ccc(Cl)cc2)c1=O` [Compound I-097] was 5 nM; that for `CCC(=O)Nc1c[nH]/c(=N\c2ccc(Oc3ccnc(C(=O)OC)c3)cc2)n(Cc2ccc(Cl)cc2)c1=O` [Compound I-098] was 11 nM.
For the compound `O=C(O)c1c[nH]/c(=N\c2ccc(Oc3ccon3)cc2)n(Cc2ccc(Cl)cc2)c1=O` [Compound I-099], 534 nM corresponded to half-maximal inhibition (IC50).
The value for `NC(=O)c1c[nH]/c(=N\c2ccc(Oc3ccon3)cc2)n(Cc2ccc(Cl)cc2)c1=O` [Compound I-100] was 32 nM.
`O=C(NCCO)c1c[nH]/c(=N\c2ccc(Oc3ccon3)cc2)n(Cc2ccc(Cl)cc2)c1=O` [Compound I-101]: half-maximal inhibition (IC50) was put at 71 nM.
Regarding `CCc1oc2ccc(/N=c3\[nH]cc(CC(C)=O)c(=O)n3Cc3ccc(Cl)cc3)cc2c1C` [Compound I-102], it took 267 nM to reach half-maximal inhibition (IC50).
Compound `CCc1oc2ccc(/N=c3\[nH]cc(CC(C)(C)O)c(=O)n3Cc3ccc(Cl)cc3)cc2c1C` [Compound I-103] came in with a half-maximal inhibitory concentration (IC50) of 144 nM.
Turning to `CCC(=O)Nc1c[nH]/c(=N\c2ccc(Oc3cccc(C(=O)O)n3)cc2)n(Cc2ccc(Cl)cc2)c1=O` [Compound I-104], the concentration for half-maximal inhibition (IC50) worked out at 3 nM.
`CCC(=O)Nc1c[nH]/c(=N\c2ccc(Oc3ccnc(C(=O)O)c3)cc2)n(Cc2ccc(Cl)cc2)c1=O` [Compound I-105] had a concentration for half-maximal inhibition (IC50) of 5 nM.
In the case of `CCC(=O)Nc1c[nH]/c(=N\c2ccc(Oc3ccnc(C(N)=O)c3)cc2)n(Cc2ccc(Cl)cc2)c1=O` [Compound I-106], the IC50 is 7 nM.
`CCOC(=O)c1c[nH]/c(=N\c2ccc(Oc3ncccc3F)cc2)n(Cc2ccc(Cl)cc2)c1=O` [Compound I-107] registered an IC50 of 29 nM.
For `O=C(O)c1c[nH]/c(=N\c2ccc(Oc3ncccc3F)cc2)n(Cc2ccc(Cl)cc2)c1=O` [Compound I-108], half-maximal inhibition (IC50) was put at 440 nM.
The value for `CN(C(=O)C1CCOCC1)c1c[nH]/c(=N\c2ccc(Oc3ccon3)cc2)n(Cc2ccc(Cl)cc2)c1=O` [Compound I-109] was 34 nM; that for `NC(=O)c1c[nH]/c(=N\c2ccc(Oc3ncccc3F)cc2)n(Cc2ccc(Cl)cc2)c1=O` [Compound I-110] was 27 nM; that for `O=C(NCCO)c1c[nH]/c(=N\c2ccc(Oc3ncccc3F)cc2)n(Cc2ccc(Cl)cc2)c1=O` [Compound I-111] was 22 nM.
On to `CCOC(=O)c1c[nH]/c(=N\c2ccc(Oc3cccc(F)n3)c(C)c2)n(Cc2ccc(Cl)cc2)c1=O` [Compound I-112], for which inhibition was half-maximal at 24 nM (IC50).
`COC(=O)[C@@H](C)Cn1c(=O)cc(Nc2ccc(Oc3ccccc3)cc2)n(Cc2ccc(Cl)cc2)c1=O` [Compound I-113] yielded a 50% inhibitory concentration (IC50) of 187 nM.
